Experimental data taken from ChEMBL document CHEMBL5518215, “Unlocking Antibacterial Potential: Key-Site-Based Regulation of Antibacterial Spectrum of Peptides” (J Med Chem, 2024).

How the values were obtained:
Acinetobacter baumannii [1] = test: Antimicrobial activity against Acinetobacter baumannii 1.6769 assessed as absence bacterial growth measured after 18 to 24 hrs incubation by NCCLS method; format: functional; conditions: time 18-24 hrs
[2] = Hemolytic activity in human RBC at effective concentration at 128 uM measured after 1 hr by microplate reader relative to control; format: toxicity, cell-based, Erythrocyte; conditions: human red blood cells (erythrocytes), read-out: Activity
Escherichia coli [3] = test: Antimicrobial activity against Escherichia coli 25922 assessed as absence bacterial growth measured after 18 to 24 hrs incubation in presence of 25% serum by NCCLS method; format: functional; conditions: time 18-24 hrs
Listeria monocytogenes [4] = test: Antimicrobial activity against Listeria monocytogenes 1.10753 assessed as absence bacterial growth measured after 18 to 24 hrs incubation by NCCLS method; format: functional; conditions: time 18-24 hrs
Escherichia coli [5] = test: Antimicrobial activity against Escherichia coli 25922 assessed as absence bacterial growth measured after 18 to 24 hrs incubation in presence of 12.5% serum by NCCLS method; format: functional; conditions: time 18-24 hrs
Escherichia coli [6] = test: Antimicrobial activity against Escherichia coli 25922 assessed as absence bacterial growth measured after 18 to 24 hrs incubation in presence of FeCl3 by NCCLS method; format: functional; conditions: time 18-24 hrs
[7] = Cytotoxicity against mouse RAW264.7 cells assessed as cell survival rate at 32 to 64 uM measured after 8 hrs by MTT assay relative to control; format: toxicity, cell-based; conditions: dose 32-64 µM, read-out: Activity
Salmonella typhimurium [8] = test: Antimicrobial activity against Salmonella typhimurium 14028 assessed as absence bacterial growth measured after 18 to 24 hrs incubation by NCCLS method; format: functional, Salmonella enterica subsp. enterica serovar Typhimurium; conditions: Salmonella enterica, time 18-24 hrs
[9] = Cytotoxicity against mouse RAW264.7 cells assessed as cell survival rate measured after 8 hrs by MTT assay; format: toxicity, cell-based
Bacillus cereus [10] = test: Antimicrobial activity against Bacillus cereus 1.932 assessed as absence bacterial growth measured after 18 to 24 hrs incubation by NCCLS method; format: functional; conditions: time 18-24 hrs
[11] = Cytotoxicity against human HEK-293T cells assessed as cell survival rate measured after 8 hrs by MTT assay; format: toxicity, cell-based
Escherichia coli [12] = test: Antimicrobial activity against Escherichia coli K88 assessed as bacterial killing measured after 16 hrs incubation; format: functional
[13] = Antimicrobial activity against Salmonella pullorum C7913 assessed as bacterial killing measured after 16 hrs incubation; format: functional, Salmonella enterica subsp. enterica serovar Pullorum; conditions: Salmonella enterica
Staphylococcus aureus [14] = test: Antimicrobial activity against Staphylococcus aureus 29213 assessed as absence bacterial growth measured after 18 to 24 hrs incubation by NCCLS m; format: functional; conditions: time 18-24 hrs
Escherichia coli [15] = test: Antimicrobial activity against Escherichia coli 25922 assessed as absence bacterial growth measured after 18 to 24 hrs incubation in presence of NH4Cl by NCCLS method; format: functional; conditions: time 18-24 hrs
Staphylococcus aureus [16] = test: Antimicrobial activity against Staphylococcus aureus 29213 assessed as absence bacterial growth measured after 18 to 24 hrs incubation by NCCLS method; format: functional; conditions: time 18-24 hrs
Staphylococcus aureus [17] = test: Antimicrobial activity against Staphylococcus aureus 29213 assessed as bacterial killing measured after 16 hrs incubation; format: functional
Escherichia coli [18] = test: Antimicrobial activity against Escherichia coli 25922 assessed as bacterial killing measured after 16 hrs incubation; format: functional
Pseudomonas aeruginosa [19] = test: Antimicrobial activity against Pseudomonas aeruginosa 27853 assessed as absence bacterial growth measured after 18 to 24 hrs incubation by NCCLS method; format: functional; conditions: time 18-24 hrs
Salmonella typhimurium [20] = test: Antimicrobial activity against Salmonella typhimurium 14028 assessed as bacterial killing measured after 16 hrs incubation; format: functional, Salmonella enterica subsp. enterica serovar Typhimurium; conditions: Salmonella enterica
Pseudomonas aeruginosa [21] = test: Antimicrobial activity against Pseudomonas aeruginosa 27853 assessed as bacterial killing measured after 16 hrs incubation; format: functional
Escherichia coli [22] = test: Antimicrobial activity against Escherichia coli 25922 assessed as absence bacterial growth measured after 18 to 24 hrs incubation in presence of KCl by NCCLS method; format: functional; conditions: time 18-24 hrs
[23] = test system: Staphylococcus epidermidis; test: Antimicrobial activity against Staphylococcus epidermidis 12228 assessed as bacterial killing measured after 16 hrs incubation; format: functional
Escherichia coli [24] = test: Antimicrobial activity against Escherichia coli 25922 assessed as absence bacterial growth measured after 18 to 24 hrs incubation in presence of ZnCl2 by NCCLS method; format: functional; conditions: time 18-24 hrs
[25] = Cytotoxicity against porcine IPEC-J2 cells assessed as cell survival rate measured after 8 hrs by MTT assay; format: toxicity, cell-based, Sus scrofa; conditions: pig
Salmonella typhimurium [26] = test: Antimicrobial activity against Salmonella typhimurium C7731 assessed as bacterial killing measured after 16 hrs incubation; format: functional, Salmonella enterica subsp. enterica serovar Typhimurium; conditions: Salmonella enterica
Staphylococcus aureus [27] = test: Antimicrobial activity against Methicillin-resistant Staphylococcus aureus 43300 assessed as bacterial killing measured after 16 hrs incubation; format: functional
[28] = Cytotoxicity against porcine IPEC-J2 cells assessed as cell survival rate at 64 uM measured after 8 hrs by MTT assay relative to control; format: toxicity, cell-based, Sus scrofa; conditions: pig, read-out: Activity
Enterococcus faecalis [29] = test: Antimicrobial activity against Enterococcus faecalis 29212 assessed as bacterial killing measured after 16 hrs incubation; format: functional
Salmonella typhimurium [30] = test: Antimicrobial activity against Salmonella typhimurium C7731 assessed as absence bacterial growth measured after 18 to 24 hrs incubation by NCCLS method; format: functional, Salmonella enterica subsp. enterica serovar Typhimurium; conditions: Salmonella enterica, time 18-24 hrs
Escherichia coli [31] = test: Antimicrobial activity against Escherichia coli 25922 assessed as absence bacterial growth measured after 18 to 24 hrs incubation by NCCLS method; format: functional; conditions: time 18-24 hrs
Bacillus cereus [32] = test: Antimicrobial activity against Bacillus cereus 1.932 assessed as bacterial killing measured after 16 hrs incubation; format: functional
Listeria monocytogenes [33] = test: Antimicrobial activity against Listeria monocytogenes 1.10753 assessed as bacterial killing measured after 16 hrs incubation; format: functional
Escherichia coli [34] = test: Antimicrobial activity against Escherichia coli 25922 assessed as absence bacterial growth measured after 18 to 24 hrs incubation in presence of MgCl2 by NCCLS method; format: functional; conditions: time 18-24 hrs
Acinetobacter baumannii [35] = test: Antimicrobial activity against Acinetobacter baumannii 1.6769 assessed as bacterial killing measured after 16 hrs incubation; format: functional
Enterococcus faecalis [36] = test: Antimicrobial activity against Enterococcus faecalis 29212 assessed as absence bacterial growth measured after 18 to 24 hrs incubation by NCCLS method; format: functional; conditions: time 18-24 hrs
Staphylococcus aureus [37] = test: Antimicrobial activity against Staphylococcus aureus 25923 assessed as bacterial killing measured after 16 hrs incubation; format: functional
[38] = Cytotoxicity against human HEK-293T cells assessed as cell survival rate at 64 uM measured after 8 hrs by MTT assay relative to control; format: toxicity, cell-based; conditions: read-out: Activity
Escherichia coli [39] = test: Antimicrobial activity against Escherichia coli K88 assessed as absence bacterial growth measured after 18 to 24 hrs incubation by NCCLS method; format: functional; conditions: time 18-24 hrs
Erythrocyte = test: Hemolytic activity in human RBC at effective concentration measured after 1 hr by microplate reader analysis; format: toxicity, cell-based
[40] = Antimicrobial activity against Salmonella pullorum C7913 assessed as absence bacterial growth measured after 18 to 24 hrs incubation by NCCLS method; format: functional, Salmonella enterica subsp. enterica serovar Pullorum; conditions: Salmonella enterica, time 18-24 hrs
Staphylococcus aureus [41] = test: Antimicrobial activity against Methicillin-resistant Staphylococcus aureus 43300 assessed as absence bacterial growth measured after 18 to 24 hrs incubation by NCCLS method; format: functional; conditions: time 18-24 hrs
[42] = test system: Staphylococcus epidermidis; test: Antimicrobial activity against Staphylococcus epidermidis 12228 assessed as absence bacterial growth measured after 18 to 24 hrs incubation by NCCLS method; format: functional; conditions: time 18-24 hrs
Escherichia coli [43] = test: Antimicrobial activity against Escherichia coli 25922 assessed as absence bacterial growth measured after 18 to 24 hrs incubation in presence of NaCl by NCCLS method; format: functional; conditions: time 18-24 hrs
Escherichia coli [44] = test: Antimicrobial activity against Escherichia coli 25922 assessed as absence bacterial growth measured after 18 to 24 hrs incubation in presence of 50% serum by NCCLS method; format: functional; conditions: time 18-24 hrs

H-GKLWLKGGKLWLKGAKLWLKG-NH2
> 80%: viability at 8 h, 64 µM [28] | viability at 8 h, 64 µM [38]
8 µM: MBC (Pseudomonas aeruginosa [21]) | MBC (Salmonella typhimurium [26]) | MIC (Escherichia coli [34])
32 µM: MIC (Escherichia coli [5])
60%: viability at 8 h, up to 64 µM [7]
< 10%: hemolysis at 1 h, 128 µM [2]
1 µM: MBC (Escherichia coli [12]) | MIC (Escherichia coli [39]) | MIC [40]
4 µM: MIC (Salmonella typhimurium [8]) | MIC (Bacillus cereus [10]) | MIC (Staphylococcus aureus [14]) | MIC (Staphylococcus aureus [16]) | MBC (Staphylococcus aureus [17]) | MIC (Pseudomonas aeruginosa [19]) | MBC (Salmonella typhimurium [20]) | MBC [23] | MBC (Staphylococcus aureus [27]) | MBC (Enterococcus faecalis [29]) | MIC (Salmonella typhimurium [30]) | MBC (Bacillus cereus [32]) | MIC (Enterococcus faecalis [36]) | MBC (Staphylococcus aureus [37]) | MIC [42]
> 32 µM: MIC (Escherichia coli [3]) | MIC (Listeria monocytogenes [4]) | MBC (Listeria monocytogenes [33]) | MIC (Escherichia coli [44])
> 128 µM: HC10 (Erythrocyte)
2 µM: MIC (Acinetobacter baumannii [1]) | MIC (Escherichia coli [6]) | MBC [13] | MIC (Escherichia coli [15]) | MBC (Escherichia coli [18]) | MIC (Escherichia coli [22]) | MIC (Escherichia coli [24]) | MIC (Escherichia coli [31]) | MBC (Acinetobacter baumannii [35]) | MIC (Staphylococcus aureus [41])
> 64 µM: IC50 at 8 h [9] | IC50 at 8 h [11] | IC50 at 8 h [25]
16 µM: MIC (Escherichia coli [43])

H-GKLWLKGGKLWLKAGKLWLKG-NH2
1 µM: MBC (Escherichia coli [12]) | MIC (Escherichia coli [24]) | MIC (Escherichia coli [39])
8 µM: MIC (Staphylococcus aureus [16]) | MBC (Staphylococcus aureus [17]) | MBC (Pseudomonas aeruginosa [21]) | MBC [23] | MBC (Salmonella typhimurium [26]) | MIC (Escherichia coli [34]) | MIC (Enterococcus faecalis [36]) | MBC (Staphylococcus aureus [37])
> 64 µM: IC50 at 8 h [9] | IC50 at 8 h [11]
54.1 µM: IC50 at 8 h [25]
16 µM: MIC (Escherichia coli [5]) | MBC (Enterococcus faecalis [29]) | MIC (Escherichia coli [43])
> 32 µM: MIC (Listeria monocytogenes [4]) | MBC (Listeria monocytogenes [33]) | MIC (Escherichia coli [44])
4 µM: MIC (Salmonella typhimurium [8]) | MIC (Bacillus cereus [10]) | MIC (Staphylococcus aureus [14]) | MBC (Escherichia coli [18]) | MIC (Pseudomonas aeruginosa [19]) | MBC (Salmonella typhimurium [20]) | MBC (Staphylococcus aureus [27]) | MIC (Salmonella typhimurium [30]) | MBC (Bacillus cereus [32]) | MBC (Acinetobacter baumannii [35]) | MIC (Staphylococcus aureus [41]) | MIC [42]
> 128 µM: HC10 (Erythrocyte)
32 µM: MIC (Escherichia coli [3])
< 10%: hemolysis at 1 h, 128 µM [2]
> 80%: viability at 8 h, 64 µM [28] | viability at 8 h, 64 µM [38]
2 µM: MIC (Acinetobacter baumannii [1]) | MIC (Escherichia coli [6]) | MBC [13] | MIC (Escherichia coli [15]) | MIC (Escherichia coli [22]) | MIC (Escherichia coli [31]) | MIC [40]
